Assay results: US20060223779A1, “Method of screening for inhibitors of human Fatty Acid-CoA Ligase 4” (priority 2000, published 2006)

Columns and labels:
COX-2 stable 293 cells = experiment: Apoptosis in stably transfected 293 cells with inducible COX-2 over-expression; type: cell-based, human; conditions: for reduction of fatty acid-induced apoptosis by inducing COX-2 over-expression: COX-2 over-expression induced, n=3; for effect on the prevention of apoptosis by COX-2: AA 300 μM, COX-2 over-expressing cells
Protocol: (A) Conditional expression level of FACL4 and COX-2 in stably transfected lines. Cells were treated with (+) or without (−) ponasterone (1 μg/ml) for 48 hr, and Western blotting was carried out with anti-FACL4 and anti-COX-2 antibodies, respectively. The loading was normalized with an anti-β actin antibody (ICN Biomedicals). […] The 293 cells stably transfected with an empty control vector (Ctl), FACL4 cDNA, COX-2 cDNA, and both FACL4 and COX-2 cDNAs were uninduced (−Pon) or induced for over-expression (+Pon) as in A. AA (300 μM) was added after 24 hr of induction and apoptosis was determined 44 hr later. […] The plot is a comparison of the relative apoptosis levels among the stable lines and is representative of three independent experiments. The values shown are the averages of triplicate determinations. […] Cells were uninduced (−Pon) or induced for over-expression as above. […] COX inhibitors were administered 6 hr later as indicated. AA (300 μM) was then added after 2 hr and apoptosis was determined 44 hr later. The plot is prepared as in B, and is a representative result from three independent experiments, in which triplicates were performed. Wt=wild-type, Mut=mutant, Met=50 μM 6-methoxy-2-naphthyl acetic acid, Indo=10 μM indomethacin. […] The COX-2, FACL4/COX-2 stable and control cells carrying an empty vector were induced for 48 hr, washed and incubated with 20 μM AA at 37° C. for 30 min. The amount of PGE2 synthesized was determined by ELISA. […] (E) The levels of free AA in the stable lines. The [^3H]
(§1) Cell Death Detection ELISA. Cells were plated on 96 well-plates at 1×10^4 cells per well. AA was applied and apoptotic death was determined after 44 hr with the Cell Death Detection ELISA (Boehringer Mannheim).
Stable cell lines. The ecdysone inducible system (Invitrogen) was used to construct stable lines over-expressing human FACL4, COX-2, COX-2 mutant, and both FACL4 and COX-2. […] The cDNAs were cloned into pIND(SP1) (Neomycin^r). The cDNA constructs, or the empty vector pIND(SP1) were transfected into EcR293 cells, which were then selected in 400 μg/ml geneticin and 400 μg/ml zeocin. […] The double stable line was generated by stably transfecting the COX-2 stable cells with another pIND(SP1)-FACL4 cDNA construct, in which the FACL4 cDNA was cloned into a pIND(SP1) (hygromycin^r) vector. The cells were selected in 400 μg/ml geneticin, 400 μg/ml zeocin, and 50 μg/ml hygromycin B. The positive colonies were screened as described above.

293 cells [1] = experiment: Apoptosis by Cell Death Detection ELISA in 293 cells; type: cell-based, human; conditions: for effect of antioxidant pretreatment on AA-induced apoptosis: antioxidant 1 hr, then AA 200 μM
Protocol: (§2) FIG. 3: Arachidonic acid induces apoptosis via activation of caspase 3. (A) Determination of cell survival. AA was added to 293 cells at the indicated concentrations and the surviving fraction of cells was determined after 44 hr. The values shown are relative to the viability of cells that were not exposed to AA. (B) Increased apoptosis in cells exposed to AA. Cells were treated with AA (300 μM) or palmitic acid (300 μM) under the same conditions as in A, and then apoptosis was detected with an ELISA. The mean values from triplicate determinations are shown. […] The 293 cells were treated with AA (300 μM; +AA) or vehicle alone (−AA) for 44 hr. The nuclei were stained with DAPI, and DNA strand breaks in individual cells were detected with a fluorescent TUNEL assay. The upper panels are the same field of cells (−AA) photographed under UV (left panels) and FITC filters (right panels). The lower panels illustrate apoptotic cells (+AA). The magnification is 80×. (D) Immunostaining with an anti-active caspase 3 antibody. Upper panels, control cells (−AA); lower panels, cells exposed to 300 μM AA. Left panels, DAPI staining; right panels, immunostaining with an antibody selective for active caspase 3. The magnification is 100×. […] The 293 cells were preincubated with caspase inhibitors (including DMQD, a caspase 3 inhibitor, and YVAD, a caspase 1 and 4 inhibitor (Peptide Institute)) for 1 hr at the indicated concentrations, AA (300 μM) was added, and apoptosis was determined 44 hr later. The values represent the means from triplicate determinations.
as §1

[2] = tested on: FACL4/COX-2 double stable cells; experiment: Cell survival of FACL4/COX-2 double stable cells after TNFα or A23187; type: cell-based, human
Protocol: FIG. 5: Enzymatic “sinks” for free arachidonic acid protect against TNFα_ and calcium ionophore_mediated cell killing. (A) Determination of cell survival. The cells were induced (+Pon) or not (−Pon) for 24 hr, and TNFα (1 ng/ml) or the calcium ionophore A23187 (5 μM) was added, and the cells were incubated for another 72 hr. The surviving fraction was determined and is plotted relative to that of the same line without TNFα or A23187 treatment. Ctl denotes control cells harboring an empty vector, while FACL4/COX-2 denotes the double stable line. (B) Measurement of the free AA. The FACL4/COX-2 cells were prelabeled with [^3H] AA, induced, and stimulated with A23187 (5 μM), and [^3H] AA release was measured at the indicated time intervals. The values are from one experiment that is representative of four independent determinations.
Stable cell lines. The ecdysone inducible system (Invitrogen) was used to construct stable lines over-expressing human FACL4, COX-2, COX-2 mutant, and both FACL4 and COX-2. […] The cDNAs were cloned into pIND(SP1) (Neomycin^r). The cDNA constructs, or the empty vector pIND(SP1) were transfected into EcR293 cells, which were then selected in 400 μg/ml geneticin and 400 μg/ml zeocin. A number of single colonies were screened for over-expression of FACL4, COX-2 wild type, and COX-2 mutant by immunoblotting against anti-FACL4 (See Y. Cao et al., 467 FEBS Lett. 263-267 (2000)), and anti-COX-2 antibodies (a gift from Dr. Jacques Maclouf), and by measurement of the CoA ligase activity for FACL4 (See D. B. Wilson et al., 257 J. Biol. Chem. 3510-3515 (1992)), or the PGE2 secretion for COX-2 wild type (ELISA assay, Assay Design, Inc.). The double stable line was generated by stably transfecting the COX-2 stable cells with another pIND(SP1)-FACL4 cDNA construct, in which the FACL4 cDNA was cloned into a pIND(SP1) (hygromycin^r) vector. The cells were selected in 400 μg/ml geneticin, 400 μg/ml zeocin, and 50 μg/ml hygromycin B. The positive colonies were screened as described above.
(§3) Cell survival. Cell viability was determined with the crystal violet staining (See M. Hayakawa et al., 268 J. Biol. Chem. 11290-11295 (1993).

293 cells [3] = experiment: Cell survival (crystal violet staining) in 293 cells; type: cell-based, human; conditions: not shown
Protocol: as §2, §3

HT 29 cells = experiment: Apoptosis by Cell Death ELISA in HT 29 cells; type: cell-based
Protocol: HT 29 Cells were plated in 96 wells. Triacsin C and AA were added (in A), or triacsin C with either indomethacin (Indo) or sulindac (Sul) (in B) were added at the indicated concentrations. Indomethacin and sulindac are both cyclooxygenase (COX) inhibitors. Apoptosis was determined by Cell Death ELISA 44 hr later (A), and 72 hr later (B), respectively. […] The values shown are the means of triplicate determinations.
as §1

[4] = tested on: colon and prostate cancer cells; conditions: by down-regulating Bcl-2; literature reports; cited from earlier work

Compound: CC/C=C\C/C=C\C/C=C\C/C=C\C/C=C\C/C=C\CCC(=O)O [DHA, docosahexaenoic acid]
- fold-increase in apoptosis after fatty acid treatment (COX-2 stable 293 cells; 100 μM): 15.1 fold
- reduction of fatty acid-induced apoptosis by inducing COX-2 over-expression (COX-2 stable 293 cells): 18.5%

Compound: CCCCCCCC/C=C\CCCCCCCC(=O)O [oleic acid]
- induction of apoptosis by other fatty acids compared with AA (293 cells [1]): did not cause the same response

Compound: TNFα
- surviving fraction, induced cells ([2]; FACL4/COX-2 double stable cells induced with ponasterone, TNFα 1 ng/ml or A23187 5 μM, 72 hr, n=3): 70.5%
- surviving fraction, uninduced cells ([2]; FACL4/COX-2 double stable cells without induction, TNFα 1 ng/ml or A23187 5 μM, 72 hr, n=3): 43.5%

Compound: O=C1O[C@H]([C@@H](O)CO)C(O)=C1O [ascorbic acid]
- effect of antioxidant pretreatment on AA-induced apoptosis (293 cells [1]; 293 cells, 44 hr): apoptosis decreased significantly

Compound: CCCCC[C@H](O)/C=C/[C@H]1C(=O)C=C[C@@H]1C/C=C\CCCC(=O)O [PGJ2]
- cell viability in the presence of exogenous AA (293 cells [3]; 5 μM added directly): did not improve cell viability

Compound: apo-transferrin: a membrane-impermeable antioxidant
- effect of antioxidant pretreatment on AA-induced apoptosis (293 cells [1]; 293 cells, 44 hr): did not alter AA-induced apoptosis

Compound: CC/C=C\C/C=C\C/C=C\C/C=C\C/C=C\CCCC(=O)O [EPA, eicosapentaenoic acid]
- fold-increase in apoptosis after fatty acid treatment (COX-2 stable 293 cells; 200 μM): 9.1 fold
- reduction of fatty acid-induced apoptosis by inducing COX-2 over-expression (COX-2 stable 293 cells): 34.0%

Compound: COc1ccc2cc(CC(=O)O)ccc2c1 [6-methoxy-2-naphthylacetic acid]
- effect on the prevention of apoptosis by COX-2 (COX-2 stable 293 cells; 50 μM): abolished the prevention of apoptosis by COX-2
- effect on the improvement in cell survival in the double stable cells ([2]; double stable cells, not shown): partially abolished the improvement in cell survival

Compound: z-YVAD-fmk
- blocking of AA-induced apoptosis by caspase inhibitor (293 cells [1]; 293 cells preincubated 1 hr with inhibitor, AA 300 μM, 44 hr): not

Compound: CCCCCCCCCCCCCCCC(=O)O [palmitic acid]
- fold-increase in apoptosis after fatty acid treatment (COX-2 stable 293 cells; 200 μM): 4.2 fold
- reduction of fatty acid-induced apoptosis by inducing COX-2 over-expression (COX-2 stable 293 cells): 8.1%
- induction of apoptosis by other fatty acids compared with AA (293 cells [1]): did not cause the same response
- apoptosis (mono- and oligo-nucleosomes) over the control (293 cells [1]; 293 cells, 300 μM, 44 hr): no increase

Compound: CCC/C=C/C/C=C/C=C/C=N/NN=O [triacsin C]
- cell death with triacsin C alone (HT 29 cells; 2 μM): did not cause cell death
- increase in apoptosis compared to control cells (HT 29 cells; 10 μM): 9 fold
- induction of apoptosis (HT 29 cells; Cell Death ELISA): induced apoptosis in a concentration-dependent manner
- increase of the apoptosis-inducing effect of triacsin C in the presence of sulindac (HT 29 cells; plus sulindac, 72 hr): 4-8 fold
- apoptosis with triacsin C when indomethacin was added (HT 29 cells; triacsin C 2 μM plus indomethacin, 72 hr): induced apoptosis
- sensitization to AA-induced apoptosis (HT 29 cells; triacsin C plus AA, 44 hr): sensitized cells to AA-induced apoptosis

Compound: tocopherol
- effect of antioxidant pretreatment on AA-induced apoptosis (293 cells [1]; 293 cells, 44 hr): apoptosis decreased significantly

Compound: CCCCC[C@H](O)/C=C/C=C\C/C=C\C/C=C\CCCC(=O)O [15-HETE]
- effect on cell survival (293 cells [3]; 293 cells): did not affect cell survival

Compound: CS(=O)(=O)Nc1ccc([N+](=O)[O-])cc1OC1CCCCC1 [NS398]
- reported effect on apoptosis [4]: enhance the induction of apoptosis

Compound: Cc1c(C)c2c(c(C)c1O)CCC(C)(C(=O)O)O2 (stereo not shown) [trolox]
- effect of antioxidant pretreatment on AA-induced apoptosis (293 cells [1]; 293 cells, 44 hr): apoptosis decreased significantly

Compound: CCCCC[C@H](O)/C=C/[C@H]1[C@H](O)CC(=O)[C@@H]1C/C=C\CCCC(=O)O [PGE2]
- cell viability in the presence of exogenous AA (293 cells [3]; 50 μM added directly): did not improve cell viability

Compound: COc1ccc2c(c1)c(CC(=O)O)c(C)n2C(=O)c1ccc(Cl)cc1 [indomethacin]
- effect on the prevention of apoptosis by COX-2 (COX-2 stable 293 cells; 10 μM): did not alter the apoptosis response

Compound: CS(=O)(=O)c1ccc(-n2nc(C(F)(F)F)cc2-c2ccc(F)cc2)cc1 [SC-58125]
- reported effect on apoptosis [4]: enhance the induction of apoptosis

Compound: CC(Cc1ccc(O)c(O)c1)C(C)Cc1ccc(O)c(O)c1 (stereo not shown) [NDGA]
- induction of apoptosis (293 cells [1]; 293 cells): induced apoptosis
